Experimental data reported in patent US4276412A, “3-Trehalosamine compounds” (The Upjohn Company, priority 1979, dated 1981).
Values after ≈ are worked out from the molar mass of the structure shown.

Legend:
E. coli UC 45 = assay: Minimal Inhibitory Concentration; type: cell-based; settings: Escherichia coli, UC45
B. subtilis (UC 564) = assay: biounit assay against B. subtilis (paper disc, zone of growth inhibition); type: cell-based; settings: IR-45 (OH--) column fractions after lyophilization; 12.7 mm disc, 0.08 ml, 32° C., ca 18 hours
Method: The active fractions during the recovery and purification process are determined by assay against the microorganism Bacillus subtilis. The assay procedure is as follows:
5.0 mls culture are centrifuged (4000×g, 10'). Serial dilutions of the supernatant solution are performed in 0.1 M phosphate buffer, pH 7.7. […] The trays are incubated at 32° C. for ca 18 hours and the zone of growth inhibition recorded.
The designation BU, used herein, means biounit. A biounit is defined as the concentration of the antibiotic which gives a 20 mm zone of inhibition.

stability at various pH = type: physicochemical; settings: any pH from about 1 to about 11
S. marcescens UC 131 = assay: Minimal Inhibitory Concentration; type: cell-based; settings: Serratia marcescens, UC131
S. faecalis UC 694 = assay: Minimal Inhibitory Concentration; type: cell-based; settings: Enterococcus faecalis, UC694
P. vulgaris UC 93 = assay: Minimal Inhibitory Concentration; type: cell-based; settings: Proteus vulgaris, UC93
Solubilities = type: physicochemical
Staphylococcus aureus = assay: antibacterial activity (in words); type: cell-based
S. aureus UC 76 = assay: Minimal Inhibitory Concentration; type: cell-based; settings: Staphylococcus aureus, UC76
D. pneumoniae UC 41 = assay: Minimal Inhibitory Concentration; type: cell-based; settings: Streptococcus pneumoniae, UC41
Ps. aeruginosa UC 95 = assay: Minimal Inhibitory Concentration; type: cell-based; settings: Pseudomonas aeruginosa, UC95
B. subtilis = assay: antibacterial activity (in words); type: cell-based
K. pneumoniae UC 58 = assay: Minimal Inhibitory Concentration; type: cell-based; settings: Klebsiella pneumoniae, UC58
S. pyogenes UC 152 = assay: Minimal Inhibitory Concentration; type: cell-based; settings: Streptococcus pyogenes, UC152
P. mirabilis UC 6671 = assay: Minimal Inhibitory Concentration; type: cell-based; settings: Proteus mirabilis, UC6671
S. flexneri UC 143 = assay: Minimal Inhibitory Concentration; type: cell-based; settings: Shigella flexneri, UC143
[1] = tested on: various Gram-positive and Gram-negative bacteria; assay: antibacterial activity (in words); type: cell-based; settings: disc assay
Method: (§1) The testing was done on a standard microbiological disc assay system using 0.1 ml per 12.7 mm disc.

S. schottmuelleri UC 126 = assay: Minimal Inhibitory Concentration; type: cell-based
S. typhi UC 215 = assay: Minimal Inhibitory Concentration; type: cell-based; settings: Salmonella enterica, read-out: Minimal Inhibitory Concentration
[2] = tested on: Klebsiella pneumoniae UC 57; assay: standard microbiological disc assay, zone size; type: cell-based; settings: 0.1 ml per 12.7 mm disc
Method: as §1

Proteus vulgaris UC 93 = assay: standard microbiological disc assay, zone size; type: cell-based; settings: 0.1 ml per 12.7 mm disc
Method: as §1

Bacillus subtilis UC 564 = assay: standard microbiological disc assay, zone size; type: cell-based; settings: 0.1 ml per 12.7 mm disc
Method: as §1

Escherichia coli UC 51 = assay: standard microbiological disc assay, zone size; type: cell-based; settings: 0.1 ml per 12.7 mm disc
Method: as §1

[3] = tested on: Staphylococcus aureus UC 3665; assay: standard microbiological disc assay, zone size; type: cell-based; settings: 0.1 ml per 12.7 mm disc
Method: as §1

Sarcina lutea UC 130 = assay: standard microbiological disc assay, zone size; type: cell-based; settings: 0.1 ml per 12.7 mm disc
Method: as §1

[4] = tested on: Pseudomonas aeruginosa UC 95; assay: standard microbiological disc assay, zone size; type: cell-based; settings: 0.1 ml per 12.7 mm disc
Method: as §1

[5] = tested on: Bacillus subtilis UC 6033; assay: standard microbiological disc assay, zone size; type: cell-based; settings: 0.1 ml per 12.7 mm disc
Method: as §1

[6] = tested on: Staphylococcus aureus UC 80; assay: standard microbiological disc assay, zone size; type: cell-based; settings: 0.1 ml per 12.7 mm disc
Method: as §1

With N[C@@H]1[C@@H](O)[C@@H](O[C@H]2O[C@H](CO)[C@@H](O)[C@H](O)[C@H]2O)O[C@H](CO)[C@H]1O [3-Trehalosamine] the MIC (E. coli UC 45) was > 1000 mg/L, the “potency vs Bs (biounits; BU = concentration giving a 20 mm zone of inhibition)” value (B. subtilis (UC 564)) was 80 BU/mg and the stability (stability at various pH) was “stable”. For the same compound, the MIC (S. marcescens UC 131) was > 1000 mg/L, the MIC (S. faecalis UC 694) was > 1000 mg/L and the MIC (P. vulgaris UC 93) was > 1000 mg/L. The solubility (Solubilities; any pH from about 1 to about 11) was “soluble”, the solubility (Solubilities; water, dilute acid, dilute base) was “soluble in water, dilute acid and dilute base” and the antibacterial activity (Staphylococcus aureus) was “active against Staphylococcus aureus”. The MIC (S. aureus UC 76) was > 1000 mg/L, the MIC (D. pneumoniae UC 41) was 62.5 mg/L (≈ 183 µM) and the MIC (Ps. aeruginosa UC 95) was > 1000 mg/L. The antibacterial activity (B. subtilis) was “active against B. subtilis”, the MIC (K. pneumoniae UC 58) was > 1000 mg/L and the MIC (S. pyogenes UC 152) was 1000 mg/L (≈ 2930 µM). The MIC (P. mirabilis UC 6671) was > 1000 mg/L, the MIC (S. flexneri UC 143) was > 1000 mg/L and the antibacterial activity [1] was “active against various Gram-positive and Gram-negative bacteria”. For the same compound, the MIC (S. schottmuelleri UC 126) was > 1000 mg/L, the MIC (S. typhi UC 215) was > 1000 mg/L and the “Zone Size” value [2] was 0 mm. For the same compound, the “Zone Size” value (Proteus vulgaris UC 93) was 0 mm, the “Zone Size” value (Bacillus subtilis UC 564) was 36.5 mm and the “Zone Size” value (Escherichia coli UC 51) was 0 mm. The “Zone Size” value [3] was 30 mm, the “Zone Size” value (Sarcina lutea UC 130) was 0 mm and the “Zone Size” value [4] was 0 mm. The “Zone Size” value [5] was 24 mm and the “Zone Size” value [6] was 32 mm.
